Assay results taken from article PMC10051705, “Leishmanicidal Activity of Guanidine Derivatives against Leishmania infantum” (Tropical Medicine and Infectious Disease, 2023).
Marks after values point to notes of the source that are not given here.

Key:
[1] = test system: human red blood cells; experiment: red blood cell lysis assay; format: cell-based; conditions: 1 h, 37 °C
Protocol: The hemolytic activities of guanidine compounds were measured using human red blood cells from healthy adults (n = 3) according to methods previously described. Briefly, 80 µL of a 5% erythrocyte/phosphate-buffered saline (PBS) suspension was mixed with 20 µL of LQOFG-2, LQOFG-6, LQOFG-7, (1000 to 7.8 µM), and AmB (100 to 0.78 µM). After incubation at 37 °C for 1 h, 200 µL of PBS (1.5 mM KH2PO4, 8.1 mM Na2HPO4, 136.9 mM NaCl, and 2.6 mM KCl, pH 7.2) was added to stop the hemolysis process, and the samples were centrifuged for 10 min at 1000× g. The supernatants were collected, and the extent of hemolysis was measured spectrophotometrically at 540 nm. The hemolysis percentage was determined as [(Abssam − Abscon)/(Abstot − Abscon) × 100], where Abssam is the absorbance of the sample, Abscon is the absorbance of the blank control (without drugs), and Abstot is the absorbance of total hemolysis (replacing the sample solution with an equal volume of ultrapure water (Direct-Q UV®, Guyancourt, France)).

[2] = in vitro cytotoxicity in PBMC (MTT); format: cell-based, human; conditions: both sexes, human, peripheral blood mononuclear cells (PBMCs), human PBMC, 24 h, MTT
Protocol: In vitro cytotoxicity was evaluated using peripheral blood mononuclear cells (PBMCs) collected from three healthy volunteers (2 males, mean age 33; and 1 person). PBMCs were separated by density gradient using Ficoll Paque PLUS (GE Healthcare, USA), pelleted by centrifugation (400× g for 40 min), and resuspended in RPMI 1640 medium, then supplemented with 10% fetal bovine serum and 1% antibiotic solution (penicillin 5000 Units/mL + streptomycin 5000 μg/mL). After 24 h of treatment, cell viability was evaluated by the modified colorimetric method based on the tetrazolium dye MTT (3-(4,5-dimethylthiazol-2-yl)-2,5- diphenyltetrazolium bromide). The MTT assay was used for in vitro cytotoxicity as previously described with the following modifications: cells were exposed to serially diluted concentrations of LQOFG-2, LQOFG-6, LQOFG-7 (1000 to 7.8 µM), and AmB (100 to 0.78 µM). The plates were kept at 37 °C for 24 h. MTT (5 mg/mL) was added and incubated for 4 h at 37 °C, after which the plates were centrifuged, the supernatant was discarded, and DMSO was added, leaving the plates under stirring to solubilize the formazan salts. Absorbance was measured at 540 nm using a plate reader (ELx800; Curitiba, PR, Brazil). The mean percentage of viable cells was calculated relative to the untreated control.

[3] = test system: L. infantum promastigotes; experiment: apoptosis/necrosis profiling, annexin V/PI staining, promastigotes; format: cell-based, Leishmania infantum
Protocol: (§1) To evaluate both apoptosis and necrosis, promastigote forms of L. infantum in the log phase of growth were incubated at several concentrations based on the IC50 values of LQOFG-2 (6.35; 12.7, 25.4, and 50.8 µM) LQOFG-6 (12.2, 24.4, 48.8 and 97.6 µM), and LQOFG-7 (11.65, 23.3, 46.6 and 93.2 µM), and AmB (1.5 and 6 µM) was used as the positive control. The plates were incubated for 24 h at 26 °C ± 1 °C in a B.O.D. incubator. After incubation, the promastigotes were washed three times in cold PBS, resuspended in binding buffer (10-mM HEPES, 140-mM NaCl, and 2.5-mM CaCl2, pH 7.4), and stained using a FITC Annexin V/Dead Cell Apoptosis Kit (BD Biosciences, San Jose, CA, USA) according to the manufacturer’s instructions. The stained cells were diluted and suspended in an Annexin V binding buffer (BD Biosciences, San Jose, CA, USA). Annexin V-FITC/propidium iodide (PI)-stained cells were analyzed using a BD FACSCanto II flow cytometer (BD Biosciences, San Jose, CA, USA). The raw data were analyzed using FlowJo 10.0.7 software (TreeStar Inc., Ashland, OR, USA).

[4] = test system: L. infantum axenic amastigotes; experiment: apoptosis/necrosis profiling, annexin V/PI staining, axenic amastigotes; format: cell-based, Leishmania infantum
Protocol: as §1
To evaluate both apoptosis and necrosis of the amastigote-like forms of L. infantum, the protocol was followed. In each well, amastigotes were treated with the guanidine compounds and controls.

Structure (SMILES): C[C@@H]1[C@H](O)[C@@H](C)/C=C/C=C/C=C/C=C/C=C/C=C/C=C/[C@H](O[C@@H]2O[C@H](C)[C@@H](O)[C@H](N)[C@@H]2O)C[C@@H]2O[C@](O)(C[C@@H](O)C[C@@H](O)[C@H](O)CC[C@@H](O)C[C@@H](O)CC(=O)O[C@H]1C)C[C@H](O)[C@H]2C(=O)O [Amphotericin B, reference compound]
- HC50, toxicity to red blood cells [1]: 7.10 ± 2.09 µM
- CC50 at 24 h [2]: 53.9 ± 3.59 µM
- % cells, Early Apoptosis (AV+, PI−) ([3]; 1× IC50, 24 h): 0.67 ± 0.27%
- % cells, Late Apoptosis (AV+, PI+) ([3]; 1× IC50, 24 h): 4.30 ± 0.28%
- % cells, Necrosis (AV−, PI+) ([3]; 1× IC50, 24 h): 7.64 ± 1.17%
- % cells, Early Apoptosis (AV+, PI−) ([3]; 4× IC50, 24 h): 0.27 ± 0.09%
- % cells, Late Apoptosis (AV+, PI+) ([3]; 4× IC50, 24 h): 65.83 ± 1.85%
- % cells, Necrosis (AV−, PI+) ([3]; 4× IC50, 24 h): 33.10 ± 1.90%
- % cells, Early Apoptosis (AV+, PI−) ([4]; 1 × EC50, 24 h): 4.73 ± 0.97%
- % cells, Late Apoptosis (AV+, PI+) ([4]; 1 × EC50, 24 h): 57.50 ± 1.72 ^d %
- % cells, Necrosis (AV−, PI+) ([4]; 1 × EC50, 24 h): 11.52 ± 1.89%
- % cells, Late Apoptosis (AV+, PI+) ([4]; 1 × EC50, 24 h, listed as AmB): 57.50 ± 1.72%
- % cells, Early Apoptosis (AV+, PI−) ([4]; 4 × EC50, 24 h): 0.60 ± 0.42%
- % cells, Late Apoptosis (AV+, PI+) ([4]; 4 × EC50, 24 h): 97.87 ± 1.01 ^d %
- % cells, Necrosis (AV−, PI+) ([4]; 4 × EC50, 24 h): 0.96 ± 0.33 ^d %
- % cells, Late Apoptosis (AV+, PI+) ([4]; 4 × EC50, 24 h, listed as AmB): 97.87 ± 1.01%

Structure (SMILES): O=C(/N=C(/NCc1ccccc1)Nc1ccc(I)cc1)c1ccccc1 [LQOFG-7, (Z)-N-((benzylamine)((4-iodophenyl)amino)methylene)benzamide]
- HC50, toxicity to red blood cells [1]: >1000 µM
- CC50 at 24 h [2]: 745.5 ± 3.58 µM
- % cells, Early Apoptosis (AV+, PI−) ([3]; 0.5× IC50, 24 h): 0.28 ± 0.05%
- % cells, Late Apoptosis (AV+, PI+) ([3]; 0.5× IC50, 24 h): 0.47 ± 0.07%
- % cells, Necrosis (AV−, PI+) ([3]; 0.5× IC50, 24 h): 0.87 ± 0.17%
- % cells, Early Apoptosis (AV+, PI−) ([3]; 1× IC50, 24 h): 0.77 ± 0.04%
- % cells, Late Apoptosis (AV+, PI+) ([3]; 1× IC50, 24 h): 0.41 ± 0.08%
- % cells, Necrosis (AV−, PI+) ([3]; 1× IC50, 24 h): 1.19 ± 0.12%
- % cells, Early Apoptosis (AV+, PI−) ([3]; 2× IC50, 24 h): 0.76 ± 0.10%
- % cells, Late Apoptosis (AV+, PI+) ([3]; 2× IC50, 24 h): 0.26 ± 0.09%
- % cells, Early Apoptosis (AV+, PI−) ([3]; 4× IC50, 24 h): 0.39 ± 0.08%
- % cells, Late Apoptosis (AV+, PI+) ([3]; 4× IC50, 24 h): 0.18 ± 0.07%
- % cells, Early Apoptosis (AV+, PI−) ([4]; 0.5 × EC50, 24 h): 5.56 ± 0.46 ^a %
- % cells, Late Apoptosis (AV+, PI+) ([4]; 0.5 × EC50, 24 h): 35.53 ± 3.13 ^c %
- % cells, Necrosis (AV−, PI+) ([4]; 0.5 × EC50, 24 h): 9.83 ± 1.27%
- % cells, Early Apoptosis (AV+, PI−) ([4]; 1 × EC50, 24 h): 5.84 ± 0.57 ^b %
- % cells, Late Apoptosis (AV+, PI+) ([4]; 1 × EC50, 24 h): 44.20 ± 1.01 ^d %
- % cells, Necrosis (AV−, PI+) ([4]; 1 × EC50, 24 h): 13.53 ± 0.32%
- % cells, Early Apoptosis (AV+, PI−) ([4]; 2 × EC50, 24 h): 10.02 ± 1.53 ^d %
- % cells, Late Apoptosis (AV+, PI+) ([4]; 2 × EC50, 24 h): 36.70 ± 10.35 ^d %
- % cells, Necrosis (AV−, PI+) ([4]; 2 × EC50, 24 h): 5.63 ± 1.24%
- % cells, Early Apoptosis (AV+, PI−) ([4]; 4 × EC50, 24 h): 8.01 ± 0.14 ^d %
- % cells, Late Apoptosis (AV+, PI+) ([4]; 4 × EC50, 24 h): 63.27 ± 0.59 ^d %
- % cells, Necrosis (AV−, PI+) ([4]; 4 × EC50, 24 h): 12.27 ± 0.48%
